Measured values published in the NIST ThermoML archive (doi:10.1021/acs.jced.5b00613).

Experiment: xn = mol fraction of the nth substance listed
Details: Liquid, Vibrating tube method

CCCCCCCCCCCCCCCC [hexadecane] + CCCCCC
mass density [kg/m3]
Details	100 kPa	1000 kPa	5000 kPa	10000 kPa	20000 kPa	30000 kPa	40000 kPa	50000 kPa	60000 kPa
298.15 K, x2 = 0.1985	759.7	760.3	763	766.3	772.3	777.9	783.2	788.1	–
298.15 K, x2 = 0.4136	744.4	745.1	748	751.4	757.8	763.7	769.2	774.4	779.5
298.15 K, x2 = 0.5007	736.7	737.5	740.4	744	750.4	756.5	762.2	767.5	772.6
298.15 K, x2 = 0.5966	726.9	727.5	730.6	734.3	741.1	747.4	753.2	758.6	763.9
298.15 K, x2 = 0.7928	700.2	700.8	704.3	708.5	715.9	722.7	729	734.8	740.4
323.15 K, x2 = 0.1985	742.3	743.2	746.2	749.9	756.7	763	768.7	774.2	779.4
323.15 K, x2 = 0.4136	726.2	727.1	730.4	734.4	741.6	748.3	754.3	760.1	765.4
323.15 K, x2 = 0.5007	717.7	719.1	722.6	726.7	734.1	741	747.2	753	758.5
323.15 K, x2 = 0.5966	707.8	708.9	712.4	716.7	724.4	731.5	737.9	744	749.7
323.15 K, x2 = 0.7928	679.1	680.6	684.7	689.6	698.3	706.2	713.2	719.7	725.7
348.15 K, x2 = 0.1985	724.4	725.2	728.7	732.9	740.6	747.6	754	760	765.6
348.15 K, x2 = 0.4136	708	709	712.8	717.3	725.6	733	739.7	746	751.9
348.15 K, x2 = 0.5007	698.3	700.1	704	708.6	717.2	724.9	731.8	738.2	744.2
348.15 K, x2 = 0.5966	687.2	689.3	693.5	698.5	707.5	715.4	722.6	729.3	735.5
348.15 K, x2 = 0.7928	658.2	659.5	664.5	670.2	680.3	689.2	697.1	704.3	711
373.15 K, x2 = 0.1985	706.6	707.5	711.7	716.4	725.2	733	740.1	746.6	752.7
373.15 K, x2 = 0.4136	689.1	690.2	694.8	699.9	709.4	717.7	725.3	732.3	738.7
373.15 K, x2 = 0.5007	–	681	685.8	691.2	701	709.7	717.5	724.6	731.2
373.15 K, x2 = 0.5966	–	669.9	674.9	680.7	691	700	708	715.3	722.1
373.15 K, x2 = 0.7928	–	638.3	644.3	651	662.7	672.8	681.7	689.7	697
423.15 K, x2 = 0.1985	668.8	670.8	676.3	682.5	693.7	703.3	711.9	719.7	726.8
423.15 K, x2 = 0.4136	–	651.3	657.6	664.5	676.6	687.1	696.3	704.6	712.1
423.15 K, x2 = 0.5007	–	640.9	647.6	654.9	667.6	678.5	688	696.5	704.2
423.15 K, x2 = 0.5966	–	628.2	635.3	643.3	656.9	668.3	678.2	687.1	695.2
423.15 K, x2 = 0.7928	–	592.3	601.2	610.7	626.4	639.2	650.3	660	668.8
463.15 K, x2 = 0.1985	–	640.3	647.5	655.5	669.1	680.6	690.5	699.3	707.4
463.15 K, x2 = 0.4136	–	618.2	626.5	635.6	650.7	663.2	673.9	683.4	692
463.15 K, x2 = 0.5007	–	606.1	615.2	624.9	640.9	654	665.1	674.9	683.6
463.15 K, x2 = 0.5966	–	593	602.9	613.2	630	643.6	655.2	665.3	674.4
463.15 K, x2 = 0.7928	–	–	563.7	577	597.1	612.8	625.8	637	647
